In PMC7026418, “The kinase polypharmacology landscape of clinical PARP inhibitors” (Scientific Reports, 2020):
Like-named read-outs stand apart in the source and are kept apart here. Each block holds one compound with its values, some of them ahead of it.

Experiments:
Experiment in all cases: biochemical
Design in all cases: DiscoveRx KINOMEscan active site-directed competition binding; percent of control kinase bound to immobilised ligand
[1] = target: T1, IKK-epsilon (Homo sapiens, UniProt Q14164)
T1 construct: gene IKBKE
T1 sequence (Q14164 1-716): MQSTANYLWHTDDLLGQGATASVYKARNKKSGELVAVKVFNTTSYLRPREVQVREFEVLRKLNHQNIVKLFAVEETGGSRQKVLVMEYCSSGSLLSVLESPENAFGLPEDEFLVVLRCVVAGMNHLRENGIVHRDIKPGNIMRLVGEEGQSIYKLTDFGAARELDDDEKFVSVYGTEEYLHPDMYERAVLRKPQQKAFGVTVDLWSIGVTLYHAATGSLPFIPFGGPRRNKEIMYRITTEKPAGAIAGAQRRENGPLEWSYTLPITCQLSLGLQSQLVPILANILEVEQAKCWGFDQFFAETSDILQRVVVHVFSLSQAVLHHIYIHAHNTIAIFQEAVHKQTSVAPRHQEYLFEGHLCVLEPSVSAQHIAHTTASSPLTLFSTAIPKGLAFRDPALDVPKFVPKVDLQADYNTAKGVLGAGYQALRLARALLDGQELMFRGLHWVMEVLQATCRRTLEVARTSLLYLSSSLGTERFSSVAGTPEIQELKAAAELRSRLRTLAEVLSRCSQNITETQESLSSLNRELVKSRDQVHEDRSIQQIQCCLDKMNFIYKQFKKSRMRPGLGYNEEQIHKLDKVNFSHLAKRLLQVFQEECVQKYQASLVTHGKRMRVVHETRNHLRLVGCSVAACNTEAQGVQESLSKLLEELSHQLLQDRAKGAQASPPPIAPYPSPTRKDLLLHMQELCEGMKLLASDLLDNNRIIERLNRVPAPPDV

[2] = target: T2, NEK1 (Homo sapiens, UniProt Q96PY6)
T2 sequence (Q96PY6 1-1258): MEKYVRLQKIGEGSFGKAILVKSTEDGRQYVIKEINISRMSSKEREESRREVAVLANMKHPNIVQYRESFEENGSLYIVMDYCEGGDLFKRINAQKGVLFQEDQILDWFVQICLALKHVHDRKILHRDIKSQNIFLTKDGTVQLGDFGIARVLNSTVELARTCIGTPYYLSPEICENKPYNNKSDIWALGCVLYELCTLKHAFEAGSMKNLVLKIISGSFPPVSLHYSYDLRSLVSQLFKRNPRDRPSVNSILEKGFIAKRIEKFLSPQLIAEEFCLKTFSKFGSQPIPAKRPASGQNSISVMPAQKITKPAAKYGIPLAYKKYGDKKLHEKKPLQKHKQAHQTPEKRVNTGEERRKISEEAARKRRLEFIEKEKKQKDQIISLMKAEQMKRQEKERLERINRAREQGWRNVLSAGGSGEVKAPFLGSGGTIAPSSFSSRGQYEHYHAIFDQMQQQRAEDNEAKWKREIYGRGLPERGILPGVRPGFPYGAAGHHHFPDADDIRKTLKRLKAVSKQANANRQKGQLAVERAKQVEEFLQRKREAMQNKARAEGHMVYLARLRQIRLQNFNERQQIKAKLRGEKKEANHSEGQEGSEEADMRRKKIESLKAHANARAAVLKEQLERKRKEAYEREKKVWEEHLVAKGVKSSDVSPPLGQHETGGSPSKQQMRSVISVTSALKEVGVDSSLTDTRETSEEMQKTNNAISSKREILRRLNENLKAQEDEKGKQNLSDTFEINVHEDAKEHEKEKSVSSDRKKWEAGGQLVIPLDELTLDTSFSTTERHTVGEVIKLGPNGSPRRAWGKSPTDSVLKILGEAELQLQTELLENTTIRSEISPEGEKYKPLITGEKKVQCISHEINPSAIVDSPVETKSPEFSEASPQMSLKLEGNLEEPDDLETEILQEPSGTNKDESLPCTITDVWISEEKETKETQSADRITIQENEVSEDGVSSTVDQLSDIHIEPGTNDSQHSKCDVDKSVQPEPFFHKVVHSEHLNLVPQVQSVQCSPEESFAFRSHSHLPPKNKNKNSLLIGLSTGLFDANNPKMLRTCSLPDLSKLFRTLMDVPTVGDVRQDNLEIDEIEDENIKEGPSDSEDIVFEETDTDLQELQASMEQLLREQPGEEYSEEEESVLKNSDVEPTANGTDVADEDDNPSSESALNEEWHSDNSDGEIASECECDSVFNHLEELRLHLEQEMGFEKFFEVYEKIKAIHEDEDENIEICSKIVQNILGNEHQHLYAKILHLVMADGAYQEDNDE

[3] = target: DYRK1A (Homo sapiens, UniProt Q13627)
[4] = read-out: Niraparib (MK-4827) / %Ctrl @ 10000nM
[5] = read-out: Olaparib / %Ctrl @ 10000nM
[6] = read-out: Rucaparib / %Ctrl @ 10000nM, binding competition, % of control
[7] = read-out: Talazoparib (BMN 673) / %Ctrl @ 10000nM

Compound: NC(=O)c1cccc2cn(-c3ccc([C@@H]4CCCNC4)cc3)nc12 [Niraparib]
- percent of control binding at 10 µM [1, 4]: 76%
- percent of control binding at 10 µM [2, 4]: 98%
- percent of control binding at 10 µM [3, 4]: 0.2%

- percent of control binding at 10 µM [1, 5]: 70%
- percent of control binding at 10 µM [2, 5]: 74%
- percent of control binding at 10 µM [3, 5]: 95%
Compound: O=C(c1cc(Cc2n[nH]c(=O)c3ccccc23)ccc1F)N1CCN(C(=O)C2CC2)CC1 [Olaparib]

- percent of control binding at 10 µM [1, 6]: 73%
- percent of control binding at 10 µM [2, 6]: 90%
- percent of control binding at 10 µM [3, 6]: 0.4%
Compound: CNCc1ccc(-c2[nH]c3cc(F)cc4c3c2CCNC4=O)cc1 [Rucaparib]

- percent of control binding at 10 µM [1, 7]: 90%
- percent of control binding at 10 µM [2, 7]: 80%
- percent of control binding at 10 µM [3, 7]: 94%
Compound: Cn1ncnc1[C@H]1c2n[nH]c(=O)c3cc(F)cc(c23)N[C@@H]1c1ccc(F)cc1 [Talazoparib]
